The values that follow come from patent US12527835B2, “Brevican-binding peptides for brain tumor imaging” (The Brigham and Women's Hospital, Inc., priority 2018, dated 2026).

Each structure is given as a SMILES string. Where a SMILES comes first, the peptide text is derived from it. [ ]: non-standard residue; d: D form.

Test [1] deals with T1, BΔg-derived peptide (a.a. 535-548 of BΔg) (Homo sapiens, UniProt Q96GW7).
T1 construct: purchased GenScript USA Inc; host or cells: chemical synthesis
The test is described as follows: Circular dichroism of peptide mixed with BΔg-derived peptide. In kind it is binding. As to conditions: CD spectrometry, 50 μM each peptide. Here is the method:
(§1) The BΔg peptide (or control BΔg(Scramble) peptide), BTP-7-FITC peptide, or a mixture of both (dissolved in Milli-Q H2O to a final concentration of 50 μM for each peptide) was loaded into a quartz cuvette (1 mm pathlength; Hellma Analytics Catalog #110-1-40). The cuvette was inserted into the Jasco J-815 circular dichroism spectropolarimeter, and the spectral scan measurement was conducted using the Spectrum Manager 2 software. The cuvette was rinsed with Milli-Q H2O in between each run. A blank (water) was run to establish the baseline for all samples. Scans were measured from 190 nm to 260 nm in a continuous mode (50-100 nm/min) at 20° C. To measure the BTP-7 structural change in the presence of either the BΔg (or control scramble) peptide, spectrum of the BΔg (or scramble) peptide alone was subtracted from the spectrum of the mixture, and then overlaid with the spectrum of BTP-7 alone for comparison. To investigate the structural changes in BTP-7 in a dose-dependent manner, 50 μM of BTP-7 peptide was loaded together with varying concentrations of either the BΔg (or control scramble) peptide. Similarly, the spectrum of each BΔg (or control scramble) peptide at the concentration was subtracted from the spectrum of the corresponding mixture, and then overlaid with the spectrum of BTP-7 alone for comparison.

In test [2] the test system is BΔg-derived peptide (a.a. 535-548 of BΔg). Described as above. As to conditions: CD spectrometry, control peptide. The class given is binding, human. As to the method:
as §1

The next test concerns HEK-Bcan cells. The test is described as follows: Flow cytometry blocking study with 50× molar excess of unlabeled peptide. In kind it is cell-based, human. As to conditions: fluorescein-conjugated peptide 1 μM. Here is the method: Cells were washed once with PBS and then, treated with 1 mL of 2.5 mM EDTA to dissociate the cells. The EDTA was removed by centrifugation, and PBS supplemented with 10% FBS was added to create a single-cell suspension. All peptide stocks were dissolved in DMSO, and stored at −20° C. in the dark. Cells were incubated with each peptide (at the desired final concentration, between 1-10 μM) for 3 hrs at 37° C. in the dark under constant rotation. After incubation, cells were washed 3× with PBS with 10% FBS (by centrifugation at 7000 rpm for 3 mins each). Then, cells were resuspended in 3.7% formaldehyde for fixation, and finally washed once with PBS. Cells were evaluated for peptide uptake (mean fluorescence intensity) by flow cytometry (10,000-20,000 events).
For blocking studies, cells were dissociated as described above and resuspended in cold PBS with 10% FBS. Cells were then incubated with a 50× molar excess of unlabeled peptide for 10 mins on ice, before adding the corresponding FITC-labeled peptide at a final concentration of 1 μM and incubated for 1.5 hrs on ice. Cells were then washed with cold PBS with 10% FBS, fixed and analyzed by flow cytometry.
A general note: Flow cytometry measures light scatter and fluorescence of single cells or particles in a stream.

`CC[C@@H](C)[C@@H](NC(=O)[C@H](N)[C@H](C)O)C(=O)N[C@H](CCCNC(=N)N)C(=O)N[C@H](CCCCN)C(=O)N[C@H](CC(C)C)C(=O)N[C@@H](C(=O)N[C@H](CCCNC(=N)N)C(=O)N[C@H](Cc1c[nH]cn1)C(N)=O)C(C)C` [BTP-8] (H-[dT][dI][dR][dK][dL][dV][dR][dH]-NH2; N-terminus and C-terminus assumed): the “peptide conformation in the presence of the BΔg-derived peptide” value in test [1] is recorded as “unaffected”. For the same compound, the “peptide conformation in the presence of the scramble(BΔg) peptide” value in test [2] was “unaffected”. Moreover, the “uptake in HEK-Bcan cells in the presence of the blocking peptide” value with HEK-Bcan cells is given as “reduced uptake”.
